Measurements as given in patent US20220146526A1, “METHOD FOR EVALUATING SAMPLE, ANALYSIS METHOD, METHOD FOR DETECTING DEGRADED SAMPLE, MARKER FOR DETECTING DEGRADED BLOOD PLASMA SAMPLE, AND MARKER FOR DETECTING DEGRADED SERUM SAMPLE” (SHIMADZU CORPORATION, priority 2019, published 2022).
“Also recorded” adds a separate entry of the source. Each block holds one compound with its values, some of them ahead of it.

Legend:
Assay type in all cases: physicochemical, human
[1] = GC/MS of blood plasma sample: time from blood collection to cooling of blood (Table B); design: key to Rate of increase or decrease / Rate of increase or decrease (first value, increase): detection intensity relative to 1 at cooling time ≤1 min; conditions: for Rate of increase or decrease: detection intensity relative to 1 at 1 minute or less, blood collection to cooling 5 minutes; for Increase or decrease: detection intensity, blood collection to cooling 5 minutes or more vs 1 minute or less; for Rate of increase or decrease (second value, decrease) / Rate of increase or decrease (first value, increase): different from individual to individual, relative to 1 at 1 minute or less, collection to cooling 5 minutes; for Rate of increase or decrease (second value, decrease): individuals with decrease; for Rate of increase or decrease (first value, increase): individuals with increase
Method: (§1) At room temperature, 5 mL of blood from a healthy subject was taken into a blood-collecting vessel containing EDTA, and the blood-collecting vessel was inverted for mixing, then cooled, and allowed to stand at 4° C. Here, in order to investigate how the detection intensity of molecules contained in the sample was affected in a case where the time to cooling was set to 5 minutes or more as compared to that in a case where the time to cooling was set to 1 minute or less, preparations were performed under both the former condition and the latter condition. After standing, the blood sample was subjected to centrifugation under a condition of 4° C., 3000 rpm, and 15 minutes. […] After centrifugation, the blood-collecting vessel was left to stand at room temperature for 30 minutes, and the blood plasma was isolated during this 30 minutes. The obtained blood plasma sample was frozen and stored. Here, in order to investigate how the detection intensity of molecules contained in the sample was affected in cases where freezing and thawing was performed 4 times, 6 times, and 10 times after freezing as compared to that in a case where freezing and thawing was performed 2 times after freezing, freezing and thawing was performed under the respective conditions of 2, 4, 6, and 10 times.
(§2) Frozen blood plasma samples and serum samples were subjected to GC/MS or LC/MS. In GC/MS, the blood plasma samples and serum samples were subjected to methoxymation and trimethylsilylation and then introduced to GC-MS.
(§3) GC/MS was conducted using GCMS·TQ8040 (Shimadzu Corporation) that was a GC·MS equipped with AOC·20i (Shimadzu Corporation) as an autosampler.
(§4) Column: BPX5 (inner diameter of 0.25 mm, length of 30 m, and film thickness of 0.25 μm) (SGE)
(§5) Column temperature: maintained at 60° C. for 2 minutes, then raised at 15° C./min, and maintained at 330° C. for 3 minutes.
(§6) Inlet temperature: 250° C.
(§7) Carrier gas control mode: constant linear velocity of 39.0 cm/sec
(§8) Sample introduction method: split (split ratio of 30:1) Injection volume: 1 μL
(§9) Ionization method: electron ionization
(§10) Ionization current: 60 μA
(§11) Interface temperature: 280° C.
(§12) Ion source temperature: 200° C.
(§13) Mode: multiple reaction monitoring (MRM)
Table B presents compounds of which the detection intensity increased or decreased by 30% or more in a case where the time from blood collection to cooling of blood, when a blood plasma sample was analyzed by GC/MS, was set to 5 minutes or more as compared to that in a case where the time was set to 1 minute or less. The rate of increase or decrease in Table B is the value of detection intensity relative to 1 that is the detection intensity in a case where the time from blood collection to cooling is set to 1 minute or less.

[2] = GC/MS of blood plasma sample: number of times of freezing and thawing (Table C); conditions: for Rate of increase or decrease: detection intensity relative to 1 at 2 times; for Increase or decrease: detection intensity
Method: as §1, §2, §3, §4, §5, §6, §7, §8, §9, §10, §11, §12, §13
The rate of increase or decrease in Table C is the value of detection intensity relative to 1 that is the detection intensity in a case where the number of times of freezing and thawing is set to 2 times.

[3] = GC/MS of blood plasma sample: time from blood collection to centrifugation (Table A); conditions: for Increase or decrease: detection intensity; for Increase or decrease / Rate of increase or decrease: blood collection to centrifugation; for Rate of increase or decrease (second value, decrease) / Rate of increase or decrease (first value, increase): different from individual to individual, relative to 1 at 15 minutes, collection to centrifugation, after 4 hours; for Rate of increase or decrease (second value, decrease): individuals with decrease; for Rate of increase or decrease (first value, increase): individuals with increase; for Rate of increase or decrease: detection intensity relative to 1 at 15 minutes
Method: as §1, §2, §3, §4, §5, §6, §7, §8, §9, §10, §11, §12, §13
The rate of increase or decrease in Table A is the value of detection intensity relative to 1 that is the detection intensity in a case where the time from blood collection to centrifugation is set to 15 minutes.

[4] = GC/MS of serum sample: number of times of freezing and thawing (Table I); design: key to Rate of increase or decrease / Rate of increase or decrease (first value, increase): detection intensity relative to 2 freeze-thaw cycles = 1; conditions: for Number of times when compound is affected: detection intensity changed by 30% or more vs 2 times of freezing and thawing
How it was run: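 Detection intensities are ratios to the value after two freeze–thaw cycles, which is set as 1, compared against 4, 6 and 10 cycles. Analysis used methoxymation and trimethylsilylation derivatization, then GC/MS with EI ionization and multiple reaction monitoring on a BPX5 column. Serum came from blood held at room temperature and spun at 3500 rpm for 5 min.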

[5] = GC/MS of serum sample: time from centrifugation to isolation (Table H); design: key to Rate of increase or decrease / Rate of increase or decrease (first value, increase): detection intensity relative to 1 at 30 min centrifugation-to-isolation; conditions: for Rate of increase or decrease: detection intensity relative to 1 at 30 minutes; for Increase or decrease: detection intensity
How it was run: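 Values are GC/MS (EI, MRM) detection intensities of methoxymated/trimethylsilylated serum, normalised to 1 for the 30-min sample. Serum was isolated 30 min, 1 h or 6 h after room-temperature centrifugation (3500 rpm, 5 min) of blood.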

[6] = GC/MS of serum sample: time from blood collection to centrifugation (Table G); conditions: blood collection to centrifugation; for Rate of increase or decrease: detection intensity relative to 1 at 15 minutes; for Increase or decrease: detection intensity
How it was run: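 Values express detection intensity as a ratio to the sample centrifuged 15 minutes after blood collection (taken as 1). Serum was derivatized by methoxymation and trimethylsilylation, then analysed by electron-ionization GC/MS using multiple reaction monitoring on a BPX5 column ramped from 60 to 330° C.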

[7] = LC/MS of serum sample: number of times of freezing and thawing (Table M); design: key to Rate of increase or decrease: detection intensity relative to 1 at 2 freeze-thaw cycles
How it was run: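 Values are detection intensities relative to serum thawed twice, versus 4, 6 or 10 freeze-thaw cycles. Serum came from blood spun at room temperature, 3500 rpm for 5 minutes. Analysis: electrospray LC/MS in MRM mode, Discovery HS F5-3 column, 40° C, 0.1% formic acid in water and acetonitrile.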

[8] = LC/MS of blood plasma sample: time from blood collection to centrifugation (Table D); conditions: blood collection to centrifugation
How it was run: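 Detection intensities are expressed relative to samples centrifuged 15 min after collection (=1), measured by electrospray LC/MS in MRM mode (Discovery HS F5-3, 40 °C, formic acid water/acetonitrile gradient at 0.25 mL/min). EDTA blood from a healthy donor was held at 4 °C, centrifuged at 4 °C, 3000 rpm, 15 min, and plasma frozen.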

[9] = detection intensity relative to 1 at 2 times, serum, GC/MS, freezing and thawing 4 times
[10] = detection intensity, serum, GC/MS, freezing and thawing 4 times vs 2 times
[11] = serum sample, GC/MS, detection intensity vs 2 times of freezing and thawing
[12] = 10 times of freezing and thawing, relative to 1 at 2 times, different from individual to individual, first value (increase)
[13] = 10 times of freezing and thawing, relative to 1 at 2 times, different from individual to individual, second value (decrease)

Compound: O=C1CCNC(=O)N1 [Dihydrouracil]
- Rate of increase or decrease ([5]; after 1 hour): 0.30
- Increase or decrease ([5]; after 1 hour vs 30 minutes): Decrease
- Rate of increase or decrease [1]: 1.42
- Increase or decrease [1]: Increase
- Increase or decrease [4, 10]: Increase; also recorded: Decrease
- Rate of increase or decrease ([6]; after 4 hours): 3.17
- Rate of increase or decrease ([6]; after 12 hours): 1.30
- Increase or decrease ([6]; after 4 hours vs 15 minutes): Increase
- Increase or decrease ([6]; after 12 hours vs 15 minutes): Decrease

Compound: NCCS(=O)O [Hypotaurine]
- Rate of increase or decrease [1]: 1.43
- Increase or decrease [1]: Increase
- Rate of increase or decrease ([6]; after 4 hours): 1.69
- Increase or decrease ([6]; after 4 hours vs 15 minutes): Increase
- Rate of increase or decrease ([3]; after 8 hours): 1.36
- Increase or decrease ([3]; after 8 hours vs 15 minutes): Increase

Compound: Cn1c(=O)[nH]c2ncn(C)c2c1=O [Paraxanthine]
- Increase or decrease ([5]; after 6 hours vs 30 minutes): Different from individual
- Rate of increase or decrease (second value, decrease) ([5]; different from individual to individual, individuals with decrease, relative to 1 at 30 minutes, after 6 hours): 0.61
- Rate of increase or decrease (first value, increase) ([5]; different from individual to individual, individuals with increase, relative to 1 at 30 minutes, after 6 hours): 2.04
- Increase or decrease [1]: Different from individual
- Rate of increase or decrease (second value, decrease) [1]: 0.67
- Rate of increase or decrease (first value, increase) [1]: 2.33
- Rate of increase or decrease [4, 12]: 2.65
- Rate of increase or decrease [4, 13]: 0.63
- Number of times when compound is affected ([4]; serum sample, GC/MS): 10 times
- Increase or decrease [4, 11]: Different from individual
- Rate of increase or decrease ([6]; after 4 hours): 2.98
- Increase or decrease ([6]; after 4 hours vs 15 minutes): Increase

Compound: O=c1[nH]c(=O)c2[nH]c(=O)[nH]c2[nH]1 [Uric acid]
- Rate of increase or decrease ([7]; 6 times of freezing and thawing, detection intensity relative to 1 at 2 times): 0.70
- Number of times when compound is affected ([7]; serum sample, LC/MS, detection intensity changed by 30% or more vs 2 times of freezing and thawing): 6 times
- Increase or decrease ([7]; serum sample, LC/MS, detection intensity vs 2 times of freezing and thawing): Decrease
- Rate of increase or decrease [1]: 0.49
- Increase or decrease [1]: Decrease
- Rate of increase or decrease [4, 12]: 1.33
- Rate of increase or decrease [4, 13]: 0.66
- Number of times when compound is affected ([4]; serum sample, GC/MS): 10 times
- Increase or decrease [4, 11]: Different from individual
- Rate of increase or decrease ([8]; detection intensity relative to 1 at 15 minutes, after 12 hours): 1.52
- Increase or decrease ([8]; detection intensity, after 12 hours vs 15 minutes): Increase
- Rate of increase or decrease ([6]; after 8 hours): 0.69
- Increase or decrease ([6]; after 8 hours vs 15 minutes): Decrease
- Rate of increase or decrease ([3]; after 12 hours): 1.89
- Increase or decrease ([3]; after 12 hours vs 15 minutes): Increase

Second part, the compound after the results:

- Rate of increase or decrease [1]: 1.31
- Increase or decrease [1]: Increase
- Rate of increase or decrease ([2]; freezing and thawing 6 times): 0.66
- Increase or decrease ([2]; freezing and thawing 6 times vs 2 times): Decrease
Compound: CC(C)CC(O)C(=O)O (stereo not shown) [2-Hydroxyisocaproic acid]

- Rate of increase or decrease [1]: 0.67
- Increase or decrease [1]: Decrease
- Increase or decrease ([3]; after 4 hours vs 15 minutes): Different from individual
- Rate of increase or decrease (second value, decrease) [3]: 0.64
- Rate of increase or decrease (first value, increase) [3]: 1.48
Compound: CCC(=O)C(=O)O [2-Ketobutyric acid]

- Increase or decrease [1]: Different from individual
- Rate of increase or decrease (second value, decrease) [1]: 0.60
- Rate of increase or decrease (first value, increase) [1]: 1.47
- Rate of increase or decrease ([2]; freezing and thawing 10 times): 0.62
- Increase or decrease ([2]; freezing and thawing 10 times vs 2 times): Decrease
- Rate of increase or decrease [4, 9]: 0.68
- Increase or decrease [4, 10]: Decrease
Compound: O=C(O)C(O)Cc1ccccc1 (stereo not shown) [3-Phenyllactic acid]

- Rate of increase or decrease [1]: 0.61
- Increase or decrease [1]: Decrease
- Rate of increase or decrease ([4]; 10 times of freezing and thawing, detection intensity relative to 1 at 2 times): 0.66
- Number of times when compound is affected ([4]; serum sample, GC/MS): 10 times
- Increase or decrease [4, 11]: Decrease
- Rate of increase or decrease ([6]; after 4 hours): 1.40
- Increase or decrease ([6]; after 4 hours vs 15 minutes): Increase
Compound: O=C(O)CO [Glycolic acid]

- Rate of increase or decrease ([5]; after 6 hours): 1.67
- Increase or decrease ([5]; after 6 hours vs 30 minutes): Increase
- Rate of increase or decrease [1]: 1.58
- Increase or decrease [1]: Increase
- Rate of increase or decrease [4, 9]: 0.61
- Increase or decrease [4, 10]: Decrease
- Rate of increase or decrease ([6]; after 4 hours): 1.31
- Increase or decrease ([6]; after 4 hours vs 15 minutes): Increase
- Increase or decrease ([3]; after 4 hours vs 15 minutes): Different from individual
- Rate of increase or decrease (second value, decrease) [3]: 0.32
- Rate of increase or decrease (first value, increase) [3]: 3.80
Compound: O=C(O)C(=O)O [Oxalic acid]
